Assay results as given in US5622962A, “5α-reductase inhibitors” (priority 1995, dated 1997).

Columns and labels:
[1] = target: T1, Type I 5α-Reductase from Human Scalp (Homo sapiens, UniProt P18405); test: Human Type I 5α-reductase assay (conversion of [3H]-testosterone to 5α-reduced metabolites); format: biochemical; settings: pH 7.5, 0.3 μM; 50 nM [3H]-testosterone, pH 7.5, 25°, 180 min; compared to control reaction mixtures; read-out: percent inhibition of Type I AR
T1 construct: Scalp punch biopsies from graft recipient sites were obtained from human hair transplant procedures; from tissue; host or cells: human scalp punch biopsies (hair transplant graft recipient sites), homogenate, 100,000×g pellet
T1 sequence (P18405 1-259): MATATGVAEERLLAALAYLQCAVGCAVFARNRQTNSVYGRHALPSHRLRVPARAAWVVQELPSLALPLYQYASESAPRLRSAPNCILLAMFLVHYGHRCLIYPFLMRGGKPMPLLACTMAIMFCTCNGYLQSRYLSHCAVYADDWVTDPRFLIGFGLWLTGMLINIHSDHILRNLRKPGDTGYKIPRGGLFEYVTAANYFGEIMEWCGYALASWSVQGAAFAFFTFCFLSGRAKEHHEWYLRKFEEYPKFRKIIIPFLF

[2] = target: T2, Type II 5α-Reductase from Human Prostate (Homo sapiens, UniProt P31213); test: Human Type II 5α-reductase assay (conversion of [3H]-testosterone to 5α-reduced metabolites); format: biochemical; settings: sodium acetate pH 5.5, 25°, 30 min, compared to control reaction mixtures; for inhibition at 0.3 µM: pH 5.5, 0.3 μM, read-out: percent inhibition of Type II AR
T2 construct: The same procedure as above was used for preparations using tissue from prostate surgery; from tissue; host or cells: human prostate tissue from surgery, homogenate, 100,000×g pellet
T2 sequence (P31213 1-254): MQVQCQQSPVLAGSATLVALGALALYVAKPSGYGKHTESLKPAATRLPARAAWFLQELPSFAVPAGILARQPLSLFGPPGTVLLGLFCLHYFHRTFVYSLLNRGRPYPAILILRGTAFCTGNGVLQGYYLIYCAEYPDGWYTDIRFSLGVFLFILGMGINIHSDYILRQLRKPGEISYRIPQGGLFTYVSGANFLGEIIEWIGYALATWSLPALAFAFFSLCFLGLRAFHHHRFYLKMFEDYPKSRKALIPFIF

Row | inhibition at 0.3 µM [1] [%] | inhibition at 0.3 µM [2] [%] | percent inhibition of Type II AR ([2]; 0.3 μM) [%] | Structure (SMILES)
1 | 95 | 38 | – | CN1C(=O)CC[C@]2(C)c3ccc(-c4ccc(SCc5ccc([N+](=O)[O-])cc5)cc4)cc3CC[C@@H]12 [Example 233, (+)-(4aR)-(10bR)-4-methyl-8-(4-[4-nitrobenzyl]thiophenyl)-10b-methyl-1,2,3,4,4a,5,6,10b-octahydrobenzo[f]quinolin-3-one]
2 | 42 | 40 | – | CN1C(=O)CC[C@]2(C)c3ccc(CC(=O)Nc4ccccc4)cc3CC[C@@H]12 [Example 277, (4aR)-(10bR)-4,10b-dimethyl-8-phenylaminocarbonylmethyl-1,2,3,4,4a,5,6,10b-octahydrobenzo[f]quinolin-3-one]
3 | 78 | 40 | – | CN1C(=O)CC[C@]2(C)c3ccc(-c4nc5ccc(Cl)cc5s4)cc3CC[C@@H]12 [Example 265, (+)-(4aR)-(10bR)-4-methyl-8-(2-[6-chloro]benzothiazolyl)-10b-methyl-1,2,3,4,4a,5,6,10b-octahydrobenzo[f]quinolin-3-one]
4 | 87 | 32 | – | CN(C)c1cccc2c(S(=O)(=O)Nc3cccc(-c4ccc5c(c4)CC[C@H]4N(C)C(=O)CC[C@]54C)c3)cccc12 [Example 91, (+)-(4aR)-(10bR)-4-methyl-8-[3-([5-dimethylamino-1-naphthyl]sulfonylamino)phenyl]-10b-methyl-1,2,3,4,4a,5,6,10b-octahydrobenzo[f]quinolin-3-one]
5 | 34 | 32 | – | CN1C(=O)CC[C@]2(C)c3ccc(-c4cccc(NC(=O)C(C)(C)C)c4)cc3CC[C@@H]12 [Example 274, (+)-(4aR)-(10bR)-4-methyl-8-(3-[pivaloylamino]phenyl)-10b-methyl-1,2,3,4,4a,5,6,10b-octahydrobenzo[f]quinolin-3-one]
6 | 25 | 43 | – | CN1C(=O)C=C[C@]2(C)c3ccc(-c4cccc([N+](=O)[O-])c4)cc3CC[C@@H]12 [Example 118, (+)-(4aR)-(10bR)-4-methyl-8-(3-nitrophenyl)-10b-methyl-3,4,4a,5,6,10b-hexahydrobenzo[f]quinolin-3-one]
7 | 80 | 21 | – | CN1C(=O)CC[C@]2(C)c3ccc(-c4ccc(F)cc4F)cc3CC[C@@H]12 [Example 231, (+)-(4aR)-(10bR)-4-methyl-8-(2,4-difluorophenyl)-10b-methyl-1,2,3,4,4a,5,6,10b-octahydrobenzo[f]quinolin-3-one]
8 | 31 | 28 | – | CN1C(=O)CC[C@]2(C)c3ccc(Sc4ncccn4)cc3CC[C@@H]12 [Example 151, (+)-(4aR)-(10bR)-4-methyl-8-(2-pyrimidinylthio)-10b-methyl-1,2,3,4,4a,5,6,10b-octahydrobenzo[f]quinolin-3-one]
9 | 81 | 34 | – | COc1ccccc1-c1ccc2c(c1)CC[C@H]1N(C)C(=O)CC[C@]21C [Example 39, (+)-(4aR)-(10bR)-4-methyl-8-(2-methoxyphenyl)-10b-methyl-1,2,3,4,4a,5,6,10b-octahydrobenzo[f]quinolin-3-one]
10 | 26 | 29 | – | CCN(CC)C(=O)c1cc2cc(-c3ccc4c(c3)CC[C@H]3N(C)C(=O)CC[C@]43C)ccc2oc1=O [Example 214, (+)-(4aR)-(10bR)-4-methyl-8-[2-oxo-3-(N,N-diethylcarboxamido)-1-2H-benzopyran-6-yl)-10b-methyl-1,2,3,4,4a,5,6,10b-octahydrobenzo[f]quinolin-3-one]
11 | 81 | 22 | – | CN1C(=O)CC[C@]2(C)c3ccc(-c4ccc(F)c5ccccc45)cc3CC[C@@H]12 [Example 64, (+)-(4aR)-(10bR)-4-methyl-8-(1-[4-fluoro]naphthyl)-10b-methyl-1,2,3,4,4a,5,6,10b-octahydrobenzo[f]quinolin-3-one]
12 | 70 | 51 | – | CN1C(=O)CC[C@]2(C)c3ccc(Sc4nccc5ccccc45)cc3CC[C@@H]12 [Example 113, (4aR)-(10bR)-4,10b-dimethyl-8-(1-isoquinolinylthio)-1,2,3,4,4a,5,6,10b-octahydrobenzo[f]quinolin-3-one]
13 | 54 | 22 | – | CN1C(=O)CC[C@]2(C)c3ccc(-c4ccc5oc(=O)ccc5c4)cc3CC[C@@H]12 [Example 248, (+)-(4aR)-(10bR)-4-methyl-8-(2-oxo-1-benzopyran-6-yl)-10b-methyl-1,2,3,4,4a,5,6,10b-octahydrobenzo[f]quinolin-3-one]
14 | 95 | 26 | – | CN1C(=O)CC[C@]2(C)c3ccc(-c4ccc(C(=O)CCCCl)cc4)cc3CC[C@@H]12 [Example 221, (+)-(4aR)-(10bR)-4-methyl-8-[4-(4-chlorobutyryl)phenyl]-10b-methyl-1,2,3,4,4a,5,6,10b-octahydrobenzo[f]quinolin-3-one]
15 | 65 | 36 | – | CN1C(=O)CC[C@]2(C)c3ccc(-c4ccc(O)c(F)c4)cc3CC[C@@H]12 [Example 28, (+)-(4aR)-(10bR)-4-methyl-8-(3-fluoro-4-hydroxyphenyl)-10b-methyl-1,2,3,4,4a,5,6,10b-octahydrobenzo[f]quinolin-3-one]
16 | 61 | 74 | – | CN1C(=O)CC[C@]2(C)c3ccc(Sc4nc5cc(Cl)c(Cl)cc5s4)cc3CC[C@@H]12 [Example 165, (+)-(4aR)-(10bR)-4-methyl-8-(5,6-dichloro-2-benzothiazolylthio)-10b-methyl-1,2,3,4,4a,5,6,10b-octahydrobenzo[f]-quinolin-3-one]
17 | 8 | 34 | – | CN1C(=O)CC[C@]2(C)c3ccc(-c4cc(C(F)(F)F)nc5c(C(F)(F)F)cccc45)cc3CC[C@@H]12 [Example 203, (+)-(4aR)-(10bR)-4-methyl-8-[2,8-bis(trifluoromethyl)-4-quinolinyl]-10b-methyl-1,2,3,4,4a,5,6,10b-octahydrobenzo[f]-quinolin-3-one]
18 | 64 | 90 | 92 | CN1C(=O)CC[C@]2(C)c3ccc(Sc4nc5ccccc5s4)cc3CC[C@@H]12 [Example 112, (4aR)-(10bR)-4,10b-dimethyl-8-(2-benzothiazolylthio)-1,2,3,4,4a,5,6,10b-octahydrobenzo[f]quinolin-3-one]
19 | 91 | 30 | – | CN1C(=O)CC[C@]2(C)c3ccc(-c4ccc(Cl)c(F)c4)cc3CC[C@@H]12 [Example 219, (+)-(4aR)-(10bR)-4-methyl-8-(4-chloro-3-fluorophenyl)-10b-methyl-1,2,3,4,4a,5,6,10b-octahydrobenzo[f]quinolin-3-one]
20 | 57 | 44 | – | CN1C(=O)CC[C@]2(C)c3ccc(-c4ccc5c(c4)Cc4ccccc4-5)cc3CC[C@@H]12 [Example 131, (+)-(4aR)-(10bR)-4-methyl-8-(2-fluorenyl)-10b-methyl-1,2,3,4,4a,5,6,10b-octahydrobenzo[f]quinolin-3-one]
21 | 3 | 31 | – | Cc1ccccc1Sc1ccc2c(c1)CC[C@H]1NC(=O)CC[C@]21C [Example 9, (+)-(4aR)-(10bR)-8-(2-methylphenylthio)-10b-methyl-1,2,3,4,4a,5,6,10b-octahydrobenzo[f]quinolin-3-one]
22 | 60 | 32 | – | CN1C(=O)CC[C@]2(C)c3ccc(-c4ccc5ccccc5n4)cc3CC[C@@H]12 [Example 247, (+)-(4aR)-(10bR)-4-methyl-8-(2-quinolinyl)-10b-methyl-1,2,3,4,4a,5,6,10b-octahydrobenzo[f]quinolin-3-one]
23 | 10 | 27 | – | CNS(=O)(=O)c1ccc(-c2ccc3c(c2)CC[C@H]2N(C)C(=O)CC[C@]32C)cc1 [Example 123]
24 | 53 | 38 | – | CN1C(=O)CC[C@]2(C)c3ccc(C(=O)c4ccccc4)cc3CC[C@@H]12 [Example 286, (4aR)-(10bR)-8-benzoyl-4,10b-dimethyl-1,2,3,4,4a,5,6,10b-octahydrobenzo[f]quinolin-3-one]
25 | 22 | 40 | – | Cc1cccc(Sc2ccc3c(c2)CC[C@H]2NC(=O)CC[C@]32C)c1 [Example 10, (+)-(4aR)-(10bR)-8-(3-methylphenylthio)-10b-methyl-1,2,3,4,4a,5,6,10b-octahydrobenzo[f]quinolin-3-one]
26 | 31 | 14 | – | CN1C(=O)CC[C@]2(C)c3ccc(-c4ccc(C(F)(F)F)cn4)cc3CC[C@@H]12 [Example 259, (+)-(4aR)-(10bR)-4-methyl-8-(2-[5-trifluoromethyl]pyridinyl)-10b-methyl-1,2,3,4,4a,5,6,10b-octahydrobenzo[f]quinolin-3-one]
